# What was measured:
# [1] = system: Staphylococcus epidermidis; experiment: Antibacterial activity against Staphylococcus epidermidis ATCC 12228 by CLSI method; assay type: functional
# Staphylococcus aureus [2] = experiment: Antibacterial activity against Staphylococcus aureus ATCC 25923 by CLSI method; assay type: functional
# Staphylococcus aureus [3] = experiment: Antibacterial activity against methicillin-resistant Staphylococcus aureus 43300 by CLSI method; assay type: functional
# Enterococcus faecalis = experiment: Antibacterial activity against Enterococcus faecalis ATCC 29212 by CLSI method; assay type: functional
# [4] = system: Staphylococcus epidermidis; experiment: Antibacterial activity against Staphylococcus epidermidis ATCC 12228 by CLSI method relative to Linezolid; assay type: functional
# Enterococcus faecium = experiment: Antibacterial activity against Enterococcus faecium 06076VRE by CLSI method relative to Linezolid; assay type: functional
# Staphylococcus aureus [5] = experiment: Antibacterial activity against Staphylococcus aureus ATCC 49775 PVL positive by CLSI method relative to Linezolid; assay type: functional
# CYP2C9 = CYP2C9 (Homo sapiens, UniProt P11712); experiment: Inhibition of recombinant human cytochrome P450-2C9 at 10 uM by fluorimetric analysis; assay type: ADME
# Chain of CYP2C9 (P11712 whole entry): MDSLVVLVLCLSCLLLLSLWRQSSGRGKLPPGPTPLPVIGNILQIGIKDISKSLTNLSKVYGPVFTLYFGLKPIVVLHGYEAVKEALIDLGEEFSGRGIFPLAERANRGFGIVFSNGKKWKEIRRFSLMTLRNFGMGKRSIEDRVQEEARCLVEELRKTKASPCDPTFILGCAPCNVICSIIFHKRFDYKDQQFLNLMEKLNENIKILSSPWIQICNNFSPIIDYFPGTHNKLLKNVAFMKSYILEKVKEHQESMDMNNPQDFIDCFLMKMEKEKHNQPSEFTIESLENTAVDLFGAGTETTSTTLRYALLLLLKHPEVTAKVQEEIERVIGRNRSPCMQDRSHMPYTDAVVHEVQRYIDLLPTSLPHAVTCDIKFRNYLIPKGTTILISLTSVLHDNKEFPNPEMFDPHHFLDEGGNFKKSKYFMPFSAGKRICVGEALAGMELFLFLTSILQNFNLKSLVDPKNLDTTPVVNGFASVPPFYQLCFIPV
# [6] = system: Staphylococcus epidermidis; experiment: Antibacterial activity against Staphylococcus epidermidis ATCC 14990 by CLSI method relative to Linezolid; assay type: functional
# Staphylococcus aureus [7] = experiment: Antibacterial activity against Staphylococcus aureus ATCC 29213 by CLSI method relative to Linezolid; assay type: functional
# Staphylococcus aureus [8] = experiment: Antibacterial activity against Staphylococcus aureus ATCC 700699 Mu 50 by CLSI method relative to Linezolid; assay type: functional
# CYP3A4 = CYP3A4 (Homo sapiens, UniProt P08684); experiment: Inhibition of human recombinant CYP3A4 at 10 uM by fluorimetric analysis; assay type: ADME
# Chain of CYP3A4 (P08684 whole entry): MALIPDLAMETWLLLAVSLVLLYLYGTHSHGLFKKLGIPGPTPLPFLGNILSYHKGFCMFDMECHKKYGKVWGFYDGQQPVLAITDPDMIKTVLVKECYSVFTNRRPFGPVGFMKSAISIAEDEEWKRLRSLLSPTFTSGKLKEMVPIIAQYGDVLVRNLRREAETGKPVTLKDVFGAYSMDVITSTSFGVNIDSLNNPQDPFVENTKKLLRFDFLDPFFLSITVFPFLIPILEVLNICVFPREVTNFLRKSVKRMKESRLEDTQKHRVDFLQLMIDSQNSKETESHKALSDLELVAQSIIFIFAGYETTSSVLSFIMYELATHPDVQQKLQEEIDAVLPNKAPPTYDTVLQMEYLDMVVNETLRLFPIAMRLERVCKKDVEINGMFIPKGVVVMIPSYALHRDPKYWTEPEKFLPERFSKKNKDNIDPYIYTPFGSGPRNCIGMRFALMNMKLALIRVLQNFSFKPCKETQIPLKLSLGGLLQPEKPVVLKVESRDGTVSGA
# Staphylococcus aureus [9] = experiment: Antibacterial activity against Staphylococcus aureus ATCC 13709 Smith by CLSI method relative to Linezolid; assay type: functional
# Staphylococcus aureus [10] = experiment: Antibacterial activity against Staphylococcus aureus FDA 209P by CLSI method relative to Linezolid; assay type: functional
# CYP2D6 = CYP2D6 (Homo sapiens, UniProt P10635); experiment: Inhibition of human recombinant CYP2D6 at 10 uM by fluorimetric analysis; assay type: ADME
# Chain of CYP2D6 (P10635 whole entry): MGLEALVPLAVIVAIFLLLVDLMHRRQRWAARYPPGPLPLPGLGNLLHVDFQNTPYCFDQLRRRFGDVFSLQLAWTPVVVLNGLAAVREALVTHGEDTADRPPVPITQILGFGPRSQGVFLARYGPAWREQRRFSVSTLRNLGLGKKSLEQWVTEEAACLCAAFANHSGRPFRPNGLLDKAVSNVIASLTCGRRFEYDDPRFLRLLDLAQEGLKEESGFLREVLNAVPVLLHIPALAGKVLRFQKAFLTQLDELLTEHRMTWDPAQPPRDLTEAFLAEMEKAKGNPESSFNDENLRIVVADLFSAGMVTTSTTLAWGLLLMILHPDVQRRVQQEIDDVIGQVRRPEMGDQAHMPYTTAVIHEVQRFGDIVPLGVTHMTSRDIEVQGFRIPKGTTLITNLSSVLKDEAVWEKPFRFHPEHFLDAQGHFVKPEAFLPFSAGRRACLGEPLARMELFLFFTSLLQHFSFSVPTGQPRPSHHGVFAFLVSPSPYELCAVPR
# Streptococcus pneumoniae = experiment: Antibacterial activity against Streptococcus pneumoniae ATCC 49619 by CLSI method relative to Linezolid; assay type: functional
# Streptococcus pyogenes = experiment: Antibacterial activity against Streptococcus pyogenes ATCC 19615 by CLSI method relative to Linezolid; assay type: functional
# CYP2C19 = CYP2C19 (Homo sapiens, UniProt P33261); experiment: Inhibition of human recombinant CYP2C19 at 10 uM by fluorimetric analysis; assay type: ADME
# Chain of CYP2C19 (P33261 whole entry): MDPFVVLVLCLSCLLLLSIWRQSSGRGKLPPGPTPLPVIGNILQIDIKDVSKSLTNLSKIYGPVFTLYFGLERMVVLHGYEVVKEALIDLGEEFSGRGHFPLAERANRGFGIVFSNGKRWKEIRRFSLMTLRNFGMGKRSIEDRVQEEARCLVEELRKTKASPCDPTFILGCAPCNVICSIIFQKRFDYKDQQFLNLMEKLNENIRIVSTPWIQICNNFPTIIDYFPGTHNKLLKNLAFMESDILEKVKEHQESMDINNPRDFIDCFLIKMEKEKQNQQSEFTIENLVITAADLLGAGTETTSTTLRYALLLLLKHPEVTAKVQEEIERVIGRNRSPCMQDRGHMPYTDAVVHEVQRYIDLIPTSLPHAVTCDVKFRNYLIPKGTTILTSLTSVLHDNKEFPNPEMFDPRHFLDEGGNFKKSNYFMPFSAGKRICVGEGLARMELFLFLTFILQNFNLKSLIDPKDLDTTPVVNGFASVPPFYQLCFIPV
# CYP1A2 = target: T1, CYP1A2 (Homo sapiens, UniProt P05177); experiment: Inhibition of human recombinant CYP1A2 at 10 uM by fluorimetric analysis; assay type: ADME
# T1 sequence (P05177 whole entry): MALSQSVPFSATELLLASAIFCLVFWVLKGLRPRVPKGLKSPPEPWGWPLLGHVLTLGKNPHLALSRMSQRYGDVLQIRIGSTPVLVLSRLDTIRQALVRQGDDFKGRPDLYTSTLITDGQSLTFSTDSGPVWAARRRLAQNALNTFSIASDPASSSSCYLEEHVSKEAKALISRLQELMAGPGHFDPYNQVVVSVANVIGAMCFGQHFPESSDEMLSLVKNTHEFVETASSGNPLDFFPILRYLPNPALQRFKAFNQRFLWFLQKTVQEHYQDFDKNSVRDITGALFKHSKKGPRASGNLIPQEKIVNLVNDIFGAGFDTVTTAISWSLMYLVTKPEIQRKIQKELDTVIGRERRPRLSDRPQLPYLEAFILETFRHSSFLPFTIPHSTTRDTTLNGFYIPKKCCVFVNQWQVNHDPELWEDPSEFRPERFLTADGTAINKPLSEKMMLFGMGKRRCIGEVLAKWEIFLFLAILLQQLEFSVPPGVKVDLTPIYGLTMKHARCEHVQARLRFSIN
Compound,MIC [1],MIC (Staphylococcus aureus [2]),MIC (Staphylococcus aureus [3]),MIC (Enterococcus faecalis),also measured
CC(=O)NC[C@H]1CN(c2ccc(-c3ccc(-c4nnc5ncccn45)c(F)c3)c(F)c2)C(=O)O1,0.5 µg/mL,0.5 µg/mL,0.125 µg/mL,0.5 µg/mL,–
CC(=O)NC[C@H]1CN(c2ccc(-c3ccc(-c4nnc5ncccn45)nc3)c(F)c2)C(=O)O1,0.5 µg/mL,0.25 µg/mL,0.125 µg/mL,0.5 µg/mL,–
CC(=O)NC[C@H]1CN(c2ccc(-c3cccc(-c4nnc5ncccn45)c3)c(F)c2)C(=O)O1,4 µg/mL,4 µg/mL,1 µg/mL,4 µg/mL,–
COc1ccc(-c2ccc(N3C[C@H](CNC(C)=O)OC3=O)cc2F)cc1-c1nnc2ncccn12,> 16 µg/mL,16 µg/mL,8 µg/mL,16 µg/mL,–
CC(=O)NC[C@H]1CN(c2ccc(-c3csc(-c4nnc5ncccn45)c3)c(F)c2)C(=O)O1,0.25 µg/mL,0.125 µg/mL,0.125 µg/mL,0.06 µg/mL,fold change (FC) [4]: 4; fold change (FC) (Enterococcus faecium): 4; fold change (FC) (Staphylococcus aureus [5]): 4; inhibition at 10 µM (CYP2C9): 40.9%; fold change (FC) [6]: 4; fold change (FC) (Staphylococcus aureus [7]): 4; fold change (FC) (Staphylococcus aureus [8]): 4; inhibition at 10 µM (CYP3A4): 37.7%; fold change (FC) (Staphylococcus aureus [9]): 4; fold change (FC) (Staphylococcus aureus [10]): 4; inhibition at 10 µM (CYP2D6): 5.6%; fold change (FC) (Streptococcus pneumoniae): 4; fold change (FC) (Streptococcus pyogenes): 4; inhibition at 10 µM (CYP2C19): 36.2%; inhibition at 10 µM (CYP1A2): 4.3%
CC(=O)NC[C@H]1CN(c2cccc(F)c2)C(=O)O1,16 µg/mL,> 16 µg/mL,16 µg/mL,> 16 µg/mL,–
CC(=O)NC[C@H]1CN(c2ccc(N3CCOCC3)c(F)c2)C(=O)O1 [LINEZOLID],1 µg/mL,–,–,–,–
